Values quoted from earlier work in US6541487B1, “PDE III inhibitors for treating sexual dysfunction” (R.T. Alamo Ventures I, LLC, priority 1998, dated 2003).

Tests used:
[1] = tested on: coronary vascular smooth muscle tissue
[2] = following oral administration
[3] = tested on: plasma high density lipoprotein cholesterol; conditions: in vivo
[4] = not given; remark: listed apart in the source
[5] = for priapism: treatment of impotence
corpus cavernosum = conditions: intracavernosal injection; severe atherosclerosis not involved

CCCc1nn(C)c2c(=O)[nH]c(-c3cc(S(=O)(=O)N4CCN(C)CC4)ccc3OCC)nc12 [Sildenafil]
inhibition of PDE III (PDE III): negligible inhibition
cyclic AMP levels [1]: no change
cyclic GMP levels [1]: selectively increases

O=C1CCc2cc(OCCCCc3nnnn3C3CCCCC3)ccc2N1 [cilostazol, 6-[4-(1-cyclohexyl-5-tetrazoyl)butoxy]-1,2,3,4-tetrahydro-2-oxoquinoline]
time of peak plasma concentrations of cilostazol [2]: 2 to 4 h
plasma high density lipoprotein cholesterol [3]: increasing
platelet aggregation (platelet aggregation): suppresses

Cn1cc([S+](C)[O-])c(=O)c2ccc(F)cc21 (stereo not drawn) [flosequinan, 7-fluoro-1-methyl-3-methylsulphinyl-4-quinolone]
inhibition of PDE III (PDE III): selective inhibitor
solubility in organic solvents: soluble in many organic solvents
solubility in water: water soluble
time of peak plasma concentrations of flosequinan ([4]; following oral administration): 1 to 2 h
time of peak metabolite plasma levels ([4]; following oral dosage, metabolite of flosequinan): about seven
mean absolute bioavailability ([4]; oral, single dose per day of 50 milligrams or 75 milligrams): 72%

COc1ccc(Cc2nccc3cc(OC)c(OC)cc23)cc1OC [papaverine]
priapism [5]: often results in priapism
erection after injection into a corpus cavernosum (corpus cavernosum): erection sufficient for vaginal penetration

CC(COc1ccccc1)N(CCCl)Cc1ccccc1 (stereo not drawn) [phenoxybenzamine]
carcinogenicity ([5]; in vivo): carcinogen
priapism [5]: often results in priapism
erection after injection into a corpus cavernosum (corpus cavernosum): erection sufficient for vaginal penetration

Cc1ccc(N(CC2=NCCN2)c2cccc(O)c2)cc1 [phentolamine]
erection after injection into a corpus cavernosum (corpus cavernosum): erection sufficient for vaginal penetration
